{"source": "patent US6992085B2", "about": "“Octahydro-2H-pyrido[1,2-a]pyrazine compounds” (Les Laboratories Servier, priority 2001, dated 2006)", "target": "T1, type H3 central histamine receptors (Mus musculus, UniProt P58406)", "T1 construct": "from tissue", "T1 sequence (P58406 whole entry)": "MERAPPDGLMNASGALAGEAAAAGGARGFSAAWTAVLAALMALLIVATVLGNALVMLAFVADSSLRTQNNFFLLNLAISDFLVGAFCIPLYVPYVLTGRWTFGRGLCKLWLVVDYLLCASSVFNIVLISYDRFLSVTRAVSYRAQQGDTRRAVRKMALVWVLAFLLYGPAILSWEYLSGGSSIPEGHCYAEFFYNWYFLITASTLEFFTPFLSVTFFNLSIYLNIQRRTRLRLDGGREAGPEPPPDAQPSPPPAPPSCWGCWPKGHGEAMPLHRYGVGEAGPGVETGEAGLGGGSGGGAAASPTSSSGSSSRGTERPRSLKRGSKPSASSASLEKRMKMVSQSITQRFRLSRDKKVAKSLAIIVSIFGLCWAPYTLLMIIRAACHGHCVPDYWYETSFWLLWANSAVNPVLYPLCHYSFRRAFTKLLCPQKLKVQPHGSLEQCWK", "assay": "Cerebral dosages of N^t-methylhistamine in the NMRI mouse (ex vivo, RIA)", "details": "NMRI mice, brain one hour after treatment, versus carrier controls", "procedure": "The purpose of this study, which was carried out in accordance with the method of Taylor et al. (Biochem. […] An increase in the cerebral concentrations of N^t-methylhistamine indicates an increase in the turn-over of histamine by blockage of the type H3 central histamine receptors. […] One hour after the pharmacological treatment, the animals are sacrificed, and their brains are removed, frozen in liquid nitrogen, weighed and homogenised in 0.1N HClO4 at 4° C. […] The supernatants are recovered and divided into aliquots. The aliquots are frozen in liquid nitrogen and stored at −80° C. until analysis. Determination of the cerebral levels of N^t-methylhistamine is carried out by radioimmunological assay (RIA) using an assay kit. The tissue levels of N^t-methylhistamine are expressed in μg/g of fresh brain. The comparison of the cerebral levels of N^t-methylhistamine between animals treated with the carrier (controls) and animals treated with compounds of the present invention is carried out by single factor variance analysis followed, if necessary, by a complementary analysis (Dunnett test).", "data": [{"smiles": "N#Cc1ccc(OCCCN2CCN3CCCCC3C2)cc1.O=C(O)/C=C/C(=O)O.O=C(O)/C=C/C(=O)O", "note": "(stereo not shown) [Example 56, 4-(3-Octahydro-2H-pyrido[1,2-a]pyrazin-2-ylpropoxy)benzonitrile difumarate]", "values": [{"measurement": "increase in endogenous cerebral concentrations of N^t-methylhistamine", "setting": "10 mg/kg IP, difumarate, 10 mg/kg", "value": 252, "unit": "%"}]}, {"smiles": "Cl.Cl.c1ccc2c(c1)cnn2CCCCN1CCN2CCCCC2C1", "note": "(stereo not shown) [Example 55, 2-[4-(1H-Indazol-1-yl)butyl]octahydro-2H-pyridol[1,2-a]pyrazine dihydrochloride]", "values": [{"measurement": "increase in endogenous cerebral concentrations of N^t-methylhistamine", "setting": "30 mg/kg IP", "value": 124, "unit": "%"}]}, {"smiles": "N#Cc1ccc(OCCCN2CCN3CCCCC3C2)cc1.O=C(O)/C=C/C(=O)O.O=C(O)/C=C/C(=O)O", "note": "(single isomer, unassigned) [Example 58, 4-(3-octahydro-2H-pyrido[1,2-a]pyrazin-2-ylpropoxy)benzonitrile difumarate, enantiomer β]", "values": [{"measurement": "increase in endogenous cerebral concentrations of N^t-methylhistamine", "setting": "10 mg/kg IP, 10 mg/kg", "value": 236, "unit": "%"}]}, {"smiles": "Cl.Cl.Cl.c1ccc2c(c1)ncn2CCCCN1CCN2CCCCC2C1", "note": "(stereo not shown) [Example 53, 2-[4-(1H-Benzimidazol-1-yl)butyl]octahydro-2H-pyrido[1,2-a]pyrazine trihydrochloride]", "values": [{"measurement": "increase in endogenous cerebral concentrations of N^t-methylhistamine", "setting": "30 mg/kg IP", "value": 89, "unit": "%"}]}]}
